Read-outs that look alike come from different tables or passages of the source.
Tests used:
Assay type in all cases: cell-based, human
TFK-1 cell line = assay: Cell TitreGlo cell viability, TFK-1 cholangiocarcinoma cells; conditions: for effect on cell viability as single substance treatment: 0.1-1000 nM; for Delta IC50 absolute value: IC50 panobinostat alone minus IC50 panobinostat + secondary drug, positive = potentiation; for IC50: single substance treatment, cell viability 48 h post drug addition, read-out: IC50
Method: (§1) Various cholangiocarcinoma (CCA) cell lines were used for this drug screening.
(§2) For panobinostat as single substance treatment seven cholangiocarcinoma cell lines were used. Panobinostat was then tested in combination with 23 other drugs on four cholangiocarcinoma cell lines. A single concentration of the combination drug was added based on a previously determined IC20 value for the combination drug tested alone on each of the four cell lines.
(§3) The viability data for each plate were normalized to the average of eight replicates of DMSO at 0.1% and seven replicates of Benzethonium Chloride (BzCl) at 100 uM. BzCl serves as a cell killing control that accounts for background signal from dead cells in the CTG luminescence assay. Raw luminescence data were normalized according to the following equation: […]
(§4) The normalized data for each dose response curve were then fit using the function drm from the R package drc. This function uses a four parameter log-logistic curve to fit the dose response data, resulting in values for curve minimum, maximum, IC50, and slope. In the case where a log-logistic curve could not be fit to the data, a logistic curve was used instead.

CC-SW-1 cell line = assay: Cell TitreGlo cell viability, CC-SW-1 cholangiocarcinoma cells; conditions: for Delta IC50 absolute value / Delta IC50 (%) / IC50: CC-SW-1; for Delta IC50 absolute value: IC50 panobinostat alone minus IC50 panobinostat + secondary drug, positive = potentiation; for Delta IC50 (%): relative change of panobinostat IC50 with secondary drug; for IC50: Homo sapiens, single substance treatment, cell viability 48 h post drug addition, read-out: IC50
Method: as §1, §2, §3, §4

EGI-1 cell line = assay: Cell TitreGlo cell viability, EGI-1 cholangiocarcinoma cells; conditions: for Delta IC50 absolute value: IC50 panobinostat alone minus IC50 panobinostat + secondary drug, positive = potentiation
Method: as §1, §2, §3, §4

HuCC-T1 cell line = assay: Cell TitreGlo cell viability, HuCC-T1 cholangiocarcinoma cells; conditions: for Delta IC50 absolute value: IC50 panobinostat alone minus IC50 panobinostat + secondary drug, positive = potentiation; for Delta IC50 (%): relative change of panobinostat IC50 with secondary drug
Method: as §1, §2, §3, §4

[1] = IC50 in H69 normal cells / IC50 in TFK-1, panobinostat + secondary drug at IC20
[2] = IC50 in H69 normal cells / IC50 in CC-SW-1, panobinostat + secondary drug at IC20
[3] = IC50 in H69 normal cells / IC50 in EGI-1, panobinostat + secondary drug at IC20
[4] = IC50 in H69 normal cells / IC50 in HuCCT-1, panobinostat + secondary drug at IC20

Structure (SMILES)	Delta IC50 absolute value (TFK-1 cell line; TFK-1) [nM]	IC50 (TFK-1 cell line; Homo sapiens, 48 h, TFK-1) [nM]	Delta IC50 absolute value (CC-SW-1 cell line) [nM]	Delta IC50 (%) (CC-SW-1 cell line)	Delta IC50 absolute value (EGI-1 cell line; EGI-1) [nM]	Therapeutic index Combination (TFK-1 cell line; [1])	effect on cell viability as single substance treatment (TFK-1 cell line; TFK-1, 48 h)	Therapeutic index Combination (CC-SW-1 cell line; [2])	Therapeutic index Combination (EGI-1 cell line; [3])	Therapeutic index Combination (HuCC-T1 cell line; [4])	other results
Cn1c(=O)n(-c2ccc(C(C)(C)C#N)cc2)c2c3cc(-c4cnc5ccccc5c4)ccc3ncc21 [Dactolisib]	46.1	93	14.5	79	37.8	2.9					IC50 (TFK-1 cell line; TFK-1): 73 nM; IC50 (EGI-1 cell line; Homo sapiens, EGI-1, 48 h, single substance treatment, EGI-1, cell viability 48 h post drug addition, read-out: IC50): 99 nM; Delta IC50 absolute value (HuCC-T1 cell line; HuCCT-1): 19.2 nM; Delta IC50 (%) (HuCC-T1 cell line; HuCCT-1): 46%
O=C(/C=C/c1cccnc1)NCCCCC1CCN(C(=O)c2ccccc2)CC1 [Daporinad, (E)-N-[4-(1-benzoylpiperidin-4-yl)butyl]-3-pyridin-3-ylprop-2-enamide]	22.3										IC50 (CC-SW-1 cell line): 8 nM; drug sensitivity score (DSS) alone (CC-SW-1 cell line; daporinad alone (FIG. 14B: CC-SW-1), 48 h): 17
N.N.[Cl][Pt][Cl] [Cisplatin, (SP-4-2)-diamminedichloroplatinum(II)]						1.1	no effect	3.6	0.7	0.8	Therapeutic index Combination (TFK-1 cell line; H69 / TFK-1, gemcitabine + cisplatin): 1,0; Therapeutic index Combination (CC-SW-1 cell line; H69 / CC-SW-1, gemcitabine + cisplatin): 0.7; Therapeutic index Combination (EGI-1 cell line; H69 / EGI-1, gemcitabine + cisplatin): 0.0; Therapeutic index Combination (HuCC-T1 cell line; H69 / HuCCT-1, gemcitabine + cisplatin): 0.4
Cc1nc(Nc2ncc(C(=O)Nc3c(C)cccc3Cl)s2)cc(N2CCN(CCO)CC2)n1 [Dasatinib, N-(2-chloro-6-methylphenyl)-2-({6-[4-(2-hydroxyethyl)piperazin-1-yl]-2-methylpyrimidin-4-yl}amino)-1,3-thiazole-5-carboxamide]					13.5	4.3	only limited efficacy	7.2	1.4	1.3	IC20 (TFK-1 cell line; Homo sapiens, TFK-1, single substance, read-out: IC20 dose of single substance curve): 5 nM
CC(C)C[C@H](NC(=O)[C@H](Cc1ccccc1)NC(=O)c1cnccn1)B(O)O [Bortezomib, [(1R)-3-methyl-1-({(2S)-3-phenyl-2-[(pyrazin-2-ylcarbonyl)amino]propanoyl}amino)butyl]boronic acid]	16.3		17.3	95	27.8	0.6		22.9	0.7	0.5	IC20 (HuCC-T1 cell line; Homo sapiens, HuCCT-1, single substance, read-out: IC20 dose of single substance curve): 1.3 nM

The next lines start with results.

Delta IC50 absolute value (TFK-1 cell line; TFK-1) [nM]	IC50 (TFK-1 cell line; Homo sapiens, 48 h, TFK-1) [nM]	Delta IC50 absolute value (CC-SW-1 cell line) [nM]	Delta IC50 (%) (CC-SW-1 cell line)	Delta IC50 absolute value (EGI-1 cell line; EGI-1) [nM]	Structure (SMILES)	Therapeutic index Combination (TFK-1 cell line; [1])	effect on cell viability as single substance treatment (TFK-1 cell line; TFK-1, 48 h)	Therapeutic index Combination (CC-SW-1 cell line; [2])	Therapeutic index Combination (EGI-1 cell line; [3])	Therapeutic index Combination (HuCC-T1 cell line; [4])	other results
41.2					CN(Cc1cnc2nc(N)nc(N)c2n1)c1ccc(C(=O)N[C@@H](CCC(=O)O)C(=O)O)cc1 [Methotrexate, N-[4-[[(2,4-diamino-6-pteridinyl)methyl]methylamino]benzoyl]-L-glutamic acid]	4.6	only minor effects	3.4	0.6	1.2	
22.3	373			33.1	CC[C@@]1(O)C(=O)OCc2c1cc1n(c2=O)Cc2cc3c(CN(C)C)c(O)ccc3nc2-1 [Topotecan, 9-[(dimethylamino)methyl]-10-hydroxy-(45)-camptothecin]	2.9		5.1	2.8	1.5	IC50 (CC-SW-1 cell line): 54 nM
26.7	123			14.1	COc1cccc2c1C(=O)c1c(O)c3c(c(O)c1C2=O)C[C@@](O)(C(=O)CO)C[C@@H]3O[C@H]1C[C@H](N)[C@H](O)[C@H](C)O1 [Doxorubicin, (1S,3S)-3-glycoloyl-3,5,12-trihydroxy-10-methoxy-6,11-dioxo-1,2,3,4,6,11-hexahydrotetracen-1-yl 3-amino-2,3,6-trideoxy-α-L-lyxo-hexopyranoside]						IC50 (HuCC-T1 cell line; Homo sapiens, HuCCT-1, single substance treatment, HuCC-T1, cell viability 48 h post drug addition, read-out: IC50): 158 nM
28.7	8	17.1	93	18.8	Cc1ccc(C(=O)N(CCCN)[C@@H](c2oc3cc(Cl)ccc3c(=O)c2Cc2ccccc2)C(C)C)cc1 [SB-743921]						Delta IC50 absolute value (HuCC-T1 cell line; HuCCT-1): 10.8 nM; Delta IC50 (%) (HuCC-T1 cell line; HuCCT-1): 27%
18.9		11.3	62	29.4	CC(=O)Nc1cccc(-n2c(=O)n(C3CC3)c(=O)c3c(Nc4ccc(I)cc4F)n(C)c(=O)c(C)c32)c1 [Trametinib]		only minor efficacy				effect on cell viability as single substance treatment (HuCC-T1 cell line; HuCCT-1, 0.1-1000 nM, 48 h): only minor efficacy; IC44 (HuCC-T1 cell line; HuCCT-1, single substance, dose used instead of IC20): 8.8 nM

From patent US20220409582A1, “COMBINATION THERAPIES COMPRISING PANOBINOSTAT FOR THE TREATMENT OF CHOLANGIOCARCINOMA” (SEALD AS, priority 2019, published 2022)
